# *1 amine or outer side, *2 acyl side, *3 side chain or, on linkers, in order; H or OH if unused. Where a SMILES comes first, the peptide text is derived from it. Bridges are numbered along the chain shown (N, C = ends). Where no end group is shown, it is not given here. [ ]: non-standard residue; d: D form. N(2-aminoethyl)Phe = O=C([C@H](Cc1ccccc1)N(CCN[*:3])[*:1])[*:2]; N(CH2CH2CO)Gly = O=C(CN(CCC(=O)[*:3])[*:1])[*:2]; 2Nal = N[C@@H](Cc1ccc2ccccc2c1)C(=O)O; Gly(S2) = not defined here; Phe(C1) = not defined here; Mpa = O=C(O)CCS
# B1: PTR 3207 (peptide)
# peptide: [dF]CFW[dW]KTF[Gly(S2)]-NH2
# modifications: disulfide 2-9; reading uncertain
# notes: Backbone to side chain cyclized nonapeptide
# B2: PTR 3219 (peptide)
# peptide: FGFWWKTFG
# modifications: (D)Phe at 1; Gly(S2) building units at 2 and 9 bridged to each other; (D)Trp at 5; C-terminal amide
# B3: PTR 3197 (peptide)
# peptide: CFW[dW]KTF[Gly(S2)]-NH2
# modifications: disulfide 1-8; reading uncertain
# notes: Backbone to side chain cyclized octapeptide
# B4: GnRH (peptide, UniProt P01148 24-33, looked up)
# peptide: QHWSYGLRPG
# modifications: not fully specified (residue 1, C-terminus)
# notes: Negative control sample; also called irrelevant peptides, such as GnRH
# B5: PTR 3211 (peptide)
# peptide: {mercaptoacetic acid}-FW[dW]KTF[Gly(S2)]-NH2
# modifications: disulfide N-7; reading uncertain
# notes: Cyclized between the SH moiety and the SH-type building unit
# Experiments:
# in vitro = details: for remaining at 1 h / remaining at 3 h / remaining at 24 h: kidney or brush border membranes
# Method: The assay was based on HPLC determination of peptide degradation as a function of time in renal homogenate at 37° C.
# SSTR-5 = target: T1, SSTR-5 (Homo sapiens, UniProt P35346); test: Inhibition of 125I-Tyr11-SRIF binding to membrane preparations expressing SSTR-5; details: SST-R5, read-out: Percent inhibition of SRIF-14 binding; for inhibition at 1 µM: 10^−6M; for inhibition at 0.1 µM: 10^−7M; for inhibition at 0.01 µM: 10^−8M
# T1 construct: expressed in transfected cells
# T1 sequence (P35346 whole entry): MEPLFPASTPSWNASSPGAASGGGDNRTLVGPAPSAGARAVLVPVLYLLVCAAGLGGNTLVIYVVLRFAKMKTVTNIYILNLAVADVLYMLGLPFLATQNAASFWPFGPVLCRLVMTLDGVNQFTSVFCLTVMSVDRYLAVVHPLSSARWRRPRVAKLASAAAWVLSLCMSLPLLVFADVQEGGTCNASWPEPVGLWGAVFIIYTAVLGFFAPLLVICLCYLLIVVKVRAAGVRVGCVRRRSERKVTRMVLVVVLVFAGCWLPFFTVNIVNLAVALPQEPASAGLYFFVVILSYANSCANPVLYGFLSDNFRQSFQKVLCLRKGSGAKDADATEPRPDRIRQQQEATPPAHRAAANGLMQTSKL
# Method: (§1) The receptor preparations used for these tests were either from the cloned human receptors selectively and stably expressed in Chinese Hamster Ovary (CHO) cells or from cell lines naturally expressing the SSTRs. […] The binding reactions were filtered, the filters were washed and the bound radioactivity was counted in gamma counter. Non specific binding was defined as the radioactivity remaining bound in the presence of 1 μM unlabeled SRIF-14.
# (§2) In order to validate positive signals of the binding tests, and to eliminate non-specific signals, samples of irrelevant peptides, such as GnRH, that were synthesized and handled using the same procedures, were tested in the same assays as negative control samples. These samples had no binding activity in any of the assays. Results are shown below in Tables 5 and 6 and FIG. 1.
# [1] = rat, in vivo, iv, 6 mg/kg
# Method: PTR 3173 was tested in various species for its initial safety properties. Under the European Pharmacopoeia requirements for safety testing, it was declared a safe drug candidate at this stage of development.
# SSTR-3 = target: T2, SSTR-3 (Homo sapiens, UniProt P32745); test: Inhibition of 125I-Tyr11-SRIF binding to membrane preparations expressing SSTR-3; details: SST-R3, read-out: Percent inhibition of SRIF-14 binding; for inhibition at 1 µM: 10^−6M; for inhibition at 0.1 µM: 10^−7M; for inhibition at 0.01 µM: 10^−8M
# T2 construct: expressed in transfected cells
# T2 sequence (P32745 whole entry): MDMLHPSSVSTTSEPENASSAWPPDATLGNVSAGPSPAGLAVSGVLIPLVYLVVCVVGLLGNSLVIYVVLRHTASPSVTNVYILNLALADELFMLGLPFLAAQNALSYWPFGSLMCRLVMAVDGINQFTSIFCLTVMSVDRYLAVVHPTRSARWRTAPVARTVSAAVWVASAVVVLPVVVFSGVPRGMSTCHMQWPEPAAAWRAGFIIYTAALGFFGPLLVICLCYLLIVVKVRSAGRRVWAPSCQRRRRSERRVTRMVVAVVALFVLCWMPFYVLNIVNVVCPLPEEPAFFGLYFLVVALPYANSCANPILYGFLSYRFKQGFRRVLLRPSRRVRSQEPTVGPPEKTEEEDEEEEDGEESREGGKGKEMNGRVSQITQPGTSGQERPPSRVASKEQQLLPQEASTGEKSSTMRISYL
# Method: as §1, with “The somatostatin analogs were tested for their potency in inhibition of the binding of ^125I-Tyr^11-SRIF (based on the method described by Raynor et. al., Molecular Pharmacology, 1993, 43, 838-844) to membrane preparations expressing the transmembranal somatostatin receptors (SSTR-1, 2, 3, 4 or 5). The receptor” for “The receptor”
# as §2
# [2] = Metabolic bio-stability against degradation by enzyme mixtures; type: in vitro ADME; details: in words; renal homogenate, rat liver homogenate and human serum
# Opiate receptors = test: NovaScreen nonspecific binding, Opiate receptors; details: tested at 100 nM; FIG. 2
# Excerpt: NovaScreen (Hanover, Md.) performed an assessment for nonspecific binding to various G-protein coupled receptor families. Binding studies to Neurokinin, Opiate and Muscarinic receptors were based on a comparison between the native hormone Somatostatin, Ocreotide and PTR 3173.
# [3] = target: T3, cloned human somatostatin receptor 3 (human, UniProt P32745 1-418); test: inhibition of SRIF binding, cloned human SSTR-3; head says nM, values evidently molar
# T3 construct: whole, on cells; Tested as cell membrane preparations; also called SSTR-3; SSTR3
# T3 sequence (P32745 whole entry): as above
# Excerpt: as §1, with “counter.” for “counter. Non specific binding was defined as the radioactivity remaining bound in the presence of 1 μM unlabeled SRIF-14.”
# [4] = target: T4, cloned human somatostatin receptor 1 (human, UniProt P30872 1-391); test: inhibition of SRIF binding, cloned human SSTR-1; head says nM, values evidently molar
# T4 construct: whole, on cells; Tested as cell membrane preparations; also called SSTR-1; SSTR1
# T4 sequence (P30872 whole entry): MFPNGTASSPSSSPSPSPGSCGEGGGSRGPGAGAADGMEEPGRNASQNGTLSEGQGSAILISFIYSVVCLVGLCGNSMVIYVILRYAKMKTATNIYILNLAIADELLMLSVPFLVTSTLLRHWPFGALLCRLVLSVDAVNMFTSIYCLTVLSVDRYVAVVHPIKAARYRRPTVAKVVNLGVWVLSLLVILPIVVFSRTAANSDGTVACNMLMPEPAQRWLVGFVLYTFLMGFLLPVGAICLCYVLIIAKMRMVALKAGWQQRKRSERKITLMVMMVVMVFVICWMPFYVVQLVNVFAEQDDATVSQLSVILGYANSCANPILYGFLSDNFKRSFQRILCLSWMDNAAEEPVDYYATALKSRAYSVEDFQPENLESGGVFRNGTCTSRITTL
# Excerpt: as §1, with “counter.” for “counter. Non specific binding was defined as the radioactivity remaining bound in the presence of 1 μM unlabeled SRIF-14.”
# [5] = target: T5, cloned human somatostatin receptor 5 (human, UniProt P35346 1-364); test: inhibition of SRIF binding, cloned human SSTR-5; head says nM, values evidently molar
# T5 construct: whole, on cells; Tested as cell membrane preparations; also called SSTR-5; SSTR5
# T5 sequence (P35346 whole entry): as the sequence (P35346 whole entry) above
# Excerpt: as §1, with “counter.” for “counter. Non specific binding was defined as the radioactivity remaining bound in the presence of 1 μM unlabeled SRIF-14.”
# [6] = target: T6, cloned human somatostatin receptor 2 (human, UniProt P30874 1-369); test: inhibition of SRIF binding, cloned human SSTR-2; head says nM, values evidently molar
# T6 construct: whole, on cells; Tested as cell membrane preparations; also called SSTR-2; SSTR2
# T6 sequence (P30874 whole entry): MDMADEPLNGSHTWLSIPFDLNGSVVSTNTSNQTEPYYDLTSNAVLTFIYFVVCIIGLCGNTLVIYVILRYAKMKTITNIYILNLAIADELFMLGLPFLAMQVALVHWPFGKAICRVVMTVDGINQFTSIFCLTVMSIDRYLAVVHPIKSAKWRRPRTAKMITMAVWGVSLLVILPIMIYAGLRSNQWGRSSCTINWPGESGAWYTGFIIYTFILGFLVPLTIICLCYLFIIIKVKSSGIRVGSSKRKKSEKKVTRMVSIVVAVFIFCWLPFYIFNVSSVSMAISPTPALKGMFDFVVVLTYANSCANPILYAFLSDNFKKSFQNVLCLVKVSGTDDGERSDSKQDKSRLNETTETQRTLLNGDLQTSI
# Excerpt: as §1, with “counter.” for “counter. Non specific binding was defined as the radioactivity remaining bound in the presence of 1 μM unlabeled SRIF-14.”
# [7] = target: T5, cloned human somatostatin receptor 5; test: IC50 for SST-R5 (subtype numbers stand in r6)
# [8] = target: T4, cloned human somatostatin receptor 1; test: IC50 for SST-R1 (subtype numbers stand in r6)
# [9] = target: T3, cloned human somatostatin receptor 3; test: IC50 for SST-R3 (subtype numbers stand in r6)
# [10] = target: T6, cloned human somatostatin receptor 2; test: 125I-Tyr11-SRIF displacement on SSTR membrane preparations, negative control peptide
# Excerpt: as §1, with “counter.” for “counter. Non specific binding was defined as the radioactivity remaining bound in the presence of 1 μM unlabeled SRIF-14.”
# as §2
# [11] = target: T7, cloned human somatostatin receptor 4 (human, UniProt P31391 1-388); test: as above
# T7 construct: whole, on cells; Tested as cell membrane preparations; also called SSTR-4; SSTR-R4
# T7 sequence (P31391 whole entry): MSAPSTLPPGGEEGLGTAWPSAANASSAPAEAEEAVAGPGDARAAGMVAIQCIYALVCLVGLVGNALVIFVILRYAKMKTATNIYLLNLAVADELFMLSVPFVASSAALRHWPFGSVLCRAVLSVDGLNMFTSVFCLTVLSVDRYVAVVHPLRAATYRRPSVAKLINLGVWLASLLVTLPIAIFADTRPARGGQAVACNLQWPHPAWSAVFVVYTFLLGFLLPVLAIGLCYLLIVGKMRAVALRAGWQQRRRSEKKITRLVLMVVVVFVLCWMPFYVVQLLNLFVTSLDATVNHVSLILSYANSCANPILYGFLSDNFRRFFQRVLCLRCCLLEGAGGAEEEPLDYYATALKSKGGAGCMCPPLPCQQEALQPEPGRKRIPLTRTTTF
# Excerpt: as §1, with “counter.” for “counter. Non specific binding was defined as the radioactivity remaining bound in the presence of 1 μM unlabeled SRIF-14.”
# as §2
# [12] = target: T4, cloned human somatostatin receptor 1; test: as above
# Excerpt: as §1, with “counter.” for “counter. Non specific binding was defined as the radioactivity remaining bound in the presence of 1 μM unlabeled SRIF-14.”
# as §2
# [13] = target: T5, cloned human somatostatin receptor 5; test: as above
# Excerpt: as §1, with “counter.” for “counter. Non specific binding was defined as the radioactivity remaining bound in the presence of 1 μM unlabeled SRIF-14.”
# as §2
# [14] = target: T3, cloned human somatostatin receptor 3; test: as above
# Excerpt: as §1, with “counter.” for “counter. Non specific binding was defined as the radioactivity remaining bound in the presence of 1 μM unlabeled SRIF-14.”
# as §2
# [15] = target: T5, cloned human somatostatin receptor 5; test: 125I-Tyr11-SRIF displacement, membranes, cloned human SST-R5
# [16] = target: T3, cloned human somatostatin receptor 3; test: 125I-Tyr11-SRIF displacement, membranes, cloned human SST-R3
# Excerpt: as §1, with “counter.” for “counter. Non specific binding was defined as the radioactivity remaining bound in the presence of 1 μM unlabeled SRIF-14.”
molecule,measurement,setting,value
"NCCCC[C@@H]1NC(=O)[C@@H](Cc2c[nH]c3ccccc23)NC(=O)[C@H](Cc2ccccc2)NC(=O)[C@H](Cc2ccccc2)NC(=O)[C@H](Cc2ccccc2)NCC(=O)NCCN([C@@H](Cc2ccccc2)C(N)=O)C1=O [PTR 3113, Phe(C1)-Phe-Phe-(D)Trp-Lys-Phe(N2)-X]",remaining at 1 h,in vitro,100%
same,remaining at 3 h,in vitro,100%
same,remaining at 24 h,in vitro,100%
same,inhibition at 1 µM,SSTR-5,86%
same,inhibition at 0.1 µM,SSTR-5,50%
same,inhibition at 0.01 µM,SSTR-5,0%
same,safety,[1],safe
same,inhibition at 1 µM,SSTR-3,94%
same,inhibition at 0.1 µM,SSTR-3,65%
same,inhibition at 0.01 µM,SSTR-3,16%
"NCCCC[C@H]1NC(=O)[C@@H](Cc2c[nH]c3ccccc23)NC(=O)[C@H](Cc2ccccc2)NC(=O)[C@H](Cc2ccccc2)NC(=O)[C@H](Cc2ccccc2)NCC(=O)NCCN([C@@H](Cc2ccccc2)C(N)=O)C1=O [PTR 3123, Phe(C1)-Phe-Phe-(D)Trp-(D)Lys-Phe(N2)-X]",remaining at 1 h,in vitro,100%
same,remaining at 3 h,in vitro,100%
same,remaining at 24 h,in vitro,100%
same,inhibition at 1 µM,SSTR-5,0%
same,inhibition at 0.1 µM,SSTR-5,0%
same,inhibition at 0.01 µM,SSTR-5,0%
same,safety,[1],safe
same,inhibition at 1 µM,SSTR-3,84%
same,inhibition at 0.1 µM,SSTR-3,41%
same,inhibition at 0.01 µM,SSTR-3,24%
"NCCCC[C@@H]1NC(=O)[C@@H](Cc2c[nH]c3ccccc23)NC(=O)[C@H](Cc2ccc(O)cc2)NC(=O)[C@H](Cc2ccccc2)NCCNC(=O)CCN(CC(N)=O)C(=O)[C@H](Cc2ccc3ccccc3c2)NC(=O)[C@H](CO)NC1=O [PTR 3201, Phe(N2)-Tyr-(D)Trp-Lys-Ser-2Nal-Gly(C2)-X] (H-[N(2-aminoethyl)Phe]Y[dW]KS[2Nal][N(CH2CH2CO)Gly]-NH2; lactam 1-7; N-terminus and C-terminus assumed)",metabolic bio-stability against degradation by enzymes,[2],considerable metabolic bio-stability against degradation by enzymes
"C[C@H](N)C(=O)NCC(=O)N[C@H]1CSSC[C@@H](C(=O)O)NC(=O)[C@H](CO)NC(=O)[C@H]([C@@H](C)O)NC(=O)[C@H](Cc2ccccc2)NC(=O)[C@H]([C@@H](C)O)NC(=O)[C@H](CCCCN)NC(=O)[C@H](Cc2c[nH]c3ccccc23)NC(=O)[C@H](Cc2ccccc2)NC(=O)[C@H](Cc2ccccc2)NC(=O)[C@H](CC(N)=O)NC(=O)[C@H](CCCCN)NC1=O [SRIF, H-Ala^1-Gly^2-Cys^3-Lys^4-Asn^5-Phe^6-Phe^7-Trp^8-Lys^9-Thr^10-Phe^11-Thr^12-Ser^13-Cys^14-OH, reference compound]",Percent of intact molecule after incubation in renal homogenate,"in vitro; Time 0 hrs, 37° C.",100%
same,remaining at 1 h,in vitro,5%
same,remaining at 3 h,in vitro,0%
same,remaining at 24 h,in vitro,0%
same,binding to Opiate receptors,Opiate receptors,did not bind
"C[C@@H](O)[C@@H]1NC(=O)[C@H](CCCCN)NC(=O)[C@@H](Cc2c[nH]c3ccccc23)NC(=O)[C@H](Cc2ccccc2)NC(=O)[C@@H]2CSSC[C@H](NC1=O)C(=O)N([C@@H](Cc1ccccc1)C(N)=O)CCCNC(=O)CCCN[C@@H](Cc1ccccc1)C(=O)N2 [PTR 3205, Phe(C3)-Cys*-Phe-(D)Trp-Lys-Thr-Cys*-Phe(N3)-X]",metabolic bio-stability against degradation by enzymes,[2],considerable metabolic bio-stability against degradation by enzymes
B1,IC50,[3],1 nM
same,IC50,[4],100 nM
same,IC50,[5],10 nM
same,IC50,[6],1 nM
same,IC50,[7],4 nM
B2,IC50,[7],37 nM
[Mpa]FW[dW]KTF[Gly(S2)]-NH2 (bridge N-8; reading uncertain) [PTR 3217],IC50,[7],4.1 nM
B3,IC50,[3],1 nM
same,IC50,[4],10 nM
same,IC50,[8],1000 nM
same,IC50,[5],10 nM
same,IC50,[6],10 nM
same,IC50,[9],40 nM
B4,binding result,[10],no binding
same,binding result,[11],no binding
same,binding result,[12],no binding
same,binding result,[13],no binding
same,binding result,[14],no binding
B5,IC50,[7],1.3 nM
"[Phe(C1)]FF[dW][dK][N(2-aminoethyl)Phe] (lactam 1-6; reading uncertain, Backbone cyclized hexapeptide) [PTR 3123]",percent inhibition of SRIF-14 binding at 10^-7M,[15],0%
same,percent inhibition of SRIF-14 binding at 10^-8M,[15],0%
same,percent inhibition of SRIF-14 binding at 10^-6M,[16],84%
same,percent inhibition of SRIF-14 binding at 10^-7M,[16],41%
same,percent inhibition of SRIF-14 binding at 10^-8M,[16],24%

# From patent publication US6930088B2, “Conformationally constrained backbone cyclized somatostatin analogs” (Peptor Ltd., priority 1998, dated 2005)
